Laboratory results as given in patent publication US8796292B2, “Selective antibacterials for clostridium difficile infections” (GLSynthesis Inc., priority 2009, dated 2014).
≈ marks a conversion by molar mass, not a printed value. Read-outs that look alike come from different tables or passages of the source.

Legend:
Experiment in all cases: agar dilution MIC assay of anaerobic bacteria
E. lentum = format: cell-based, Eubacterium lentum
In short: (§1)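 Growth inhibition is scored as absence of colony formation on agar containing serial drug dilutions, following CLSI anaerobe guidance. Plates receive 500-1000 CFU and incubate anaerobically at 35° C. for 48 hours.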

Bi. longum = format: cell-based, Bifidobacterium longum
In short: as §1

Bi. brevi = format: cell-based, Bifidobacterium brevi
In short: as §1

L. acidophilus = format: cell-based; conditions: Lactobacillus acidophilus
In short: as §1

Ba. fragilis = format: cell-based; conditions: Bacteroides fragilis
In short: as §1

L. casei = format: cell-based, Lactobacillus casei; conditions: Lacticaseibacillus casei
In short: as §1

C. difficile = format: cell-based, Clostridium difficile; conditions: Clostridioides difficile, read-out: MIC
In short: as §1

- MIC (E. lentum; Eggerthella lenta, E. lentum, Micromyx Number 1274, Table 1, read-out: MIC): 0.5 µg/mL (≈ 2.92 µM)
- MIC (E. lentum; Eu. Lentum, Strain no. 1274 (ATCC strain), Table 3): 0.5 µg/mL (≈ 2.92 µM)
- MIC (Bi. longum; Bi. Longum, Strain no. 3968 (ATCC strain), Table 3): 4 µg/mL (≈ 23.4 µM)
- MIC (Bi. longum; Bifidobacterium longum, Bi. longum, Micromyx Number 3968, Table 1, read-out: MIC): 4 µg/mL (≈ 23.4 µM)
- MIC (Bi. brevi; Bifidobacterium breve, Bi. Breve, Strain no. 3967 (ATCC strain), Table 3): 4 µg/mL (≈ 23.4 µM)
- MIC (Bi. brevi; Bifidobacterium, Bi. brevi, Micromyx Number 3967, Table 1): > 16 µg/mL
- MIC (L. acidophilus; Micromyx Number 0681, Table 1): > 16 µg/mL
- MIC (L. acidophilus; Strain no. 0681, Table 3): > 32 µg/mL
- MIC (Ba. fragilis; B. fragilis, Micromyx Number 0123 (ATCC strain), Table 2): 0.5 µg/mL (≈ 2.92 µM)
- MIC (Ba. fragilis; B. fragilis, Strain no. 0123 (ATCC strain), Gram-negative (control), Table 3): 0.5 µg/mL (≈ 2.92 µM)
- MIC (Ba. fragilis; Ba. fragilis, Micromyx Number 0123 (ATCC strain), Gram negative, Table 1): 1 µg/mL (≈ 5.84 µM)
- MIC (L. casei; Micromyx Number 1722, Table 1): > 16 µg/mL
- MIC (L. casei; Strain no. 1722 (ATCC strain), Table 3): > 32 µg/mL
- MIC (C. difficile; C. diff. Strain no. 18285, Table 4): 2 µg/mL (≈ 11.7 µM)
- MIC (C. difficile; C. diff. Strain no. 19265, Table 4): 0.5 µg/mL (≈ 2.92 µM)
- MIC (C. difficile; C. diff. Strain no. 19273, Table 4): 0.25 µg/mL (≈ 1.46 µM)
- MIC (C. difficile; C. diff. Strain no. 19281, Table 4): 0.5 µg/mL (≈ 2.92 µM)
- MIC (C. difficile; C. diff. Strain no. 19291, Table 4): 0.5 µg/mL (≈ 2.92 µM)
- MIC (C. difficile; C. diff. Strain no. 19369, Table 4): 0.5 µg/mL (≈ 2.92 µM)
- MIC (C. difficile; C. diff. Strain no. 19382, Table 4): 0.5 µg/mL (≈ 2.92 µM)
- MIC (C. difficile; C. diff. Strain no. 19540, Table 4): 4 µg/mL (≈ 23.4 µM)
- MIC (C. difficile; C. diff. Strain no. 19580, Table 4): 2 µg/mL (≈ 11.7 µM)
- MIC (C. difficile; C. diff. Strain no. 19680, Table 4): 4 µg/mL (≈ 23.4 µM)
- MIC (C. difficile; C. diff. Strain no. 19681, Table 4): 1 µg/mL (≈ 5.84 µM)
- MIC (C. difficile; C. diff. Strain no. 19683, Table 4): 2 µg/mL (≈ 11.7 µM)
- MIC (C. difficile; C. diff. Strain no. 19687, Table 4): 4 µg/mL (≈ 23.4 µM)
- MIC (C. difficile; C. diff. Strain no. 20066, Table 4): 4 µg/mL (≈ 23.4 µM)
- MIC (C. difficile; C. diff. Strain no. 20152, Table 4): 1 µg/mL (≈ 5.84 µM)
- MIC (C. difficile; C. diff. Strain no. 20307, Table 4): 0.5 µg/mL (≈ 2.92 µM)
- MIC (C. difficile; C. diff. Strain no. 20494, Table 4): 1 µg/mL (≈ 5.84 µM)
- MIC (C. difficile; C. diff. Strain no. 20680, Table 4): 4 µg/mL (≈ 23.4 µM)
- MIC (C. difficile; C. diff. Strain no. 20934, Table 4): 1 µg/mL (≈ 5.84 µM)
- MIC (C. difficile; C. diff. Strain no. 21099, Table 4): 2 µg/mL (≈ 11.7 µM)
- MIC (C. difficile; C. diff., Micromyx Number 3579, Table 2): 0.5 µg/mL (≈ 2.92 µM)
- MIC (C. difficile; C. diff., Micromyx Number 3580, Table 2): 0.5 µg/mL (≈ 2.92 µM)
- MIC (C. difficile; C. diff., Micromyx Number 3581, Table 2): 0.5 µg/mL (≈ 2.92 µM)
- MIC (C. difficile; C. diff., Micromyx Number 3582 (ATCC strain), Table 2): 0.5 µg/mL (≈ 2.92 µM)
- MIC (C. difficile; C. diff., Strain no. 3580, Table 3): 1 µg/mL (≈ 5.84 µM)
- MIC (C. difficile; C. diff., Strain no. 3581, Table 3): 1 µg/mL (≈ 5.84 µM)
- MIC (C. difficile; C. diff., Strain no. 3582, Table 3): 0.5 µg/mL (≈ 2.92 µM)
- MIC (C. difficile; C. diff., Strain no. 3584, Table 3): 0.5 µg/mL (≈ 2.92 µM)
- MIC (C. difficile; C. diff., Strain no. 3585, Table 3): 1 µg/mL (≈ 5.84 µM)
- MIC (C. difficile; C. diff., Strain no. 3586, Table 3): 0.12 µg/mL (≈ 0.701 µM)
- MIC (C. difficile; C. diff., Strain no. 3587, Table 3): 1 µg/mL (≈ 5.84 µM)
- MIC (C. difficile; C. diff., Strain no. 3588, Table 3): 0.5 µg/mL (≈ 2.92 µM)
- MIC (C. difficile; C. diff., Strain no. 3589, Table 3): 2 µg/mL (≈ 11.7 µM)
- MIC (C. difficile; C. diff., Strain no. 4381 (ATCC strain), Table 3): 0.5 µg/mL (≈ 2.92 µM)
- MIC (C. difficile; C. difficile, Micromyx Number 1209, Table 1): 0.5 µg/mL (≈ 2.92 µM)
- MIC (C. difficile; C. difficile, Micromyx Number 3579, Table 1): 0.25 µg/mL (≈ 1.46 µM)
- MIC (C. difficile; C. difficile, Micromyx Number 3580, Table 1): 0.5 µg/mL (≈ 2.92 µM)
- MIC (C. difficile; C. difficile, Micromyx Number 3581, Table 1): 1 µg/mL (≈ 5.84 µM)
- MIC (C. difficile; C. difficile, Micromyx Number 3582, Table 1): 0.25 µg/mL (≈ 1.46 µM)
- MIC (C. difficile; C. difficile, Micromyx Number 3584, Table 1): 0.5 µg/mL (≈ 2.92 µM)
- MIC (C. difficile; C. difficile, Micromyx Number 3585, Table 1): 0.5 µg/mL (≈ 2.92 µM)
- MIC (C. difficile; C. difficile, Micromyx Number 3586, Table 1): 0.5 µg/mL (≈ 2.92 µM)
- MIC (C. difficile; C. difficile, Micromyx Number 3587, Table 1): 1 µg/mL (≈ 5.84 µM)
- MIC (C. difficile; C. difficile, Micromyx Number 3588, Table 1): 0.5 µg/mL (≈ 2.92 µM)
- MIC (C. difficile; C. difficile, Micromyx Number 3589, Table 1): 1 µg/mL (≈ 5.84 µM)
- MIC (C. difficile; C. difficile, Micromyx Number 3590, Table 1): 0.5 µg/mL (≈ 2.92 µM)
- MIC (C. difficile; C. difficile, Micromyx Number 3591, Table 1): 0.5 µg/mL (≈ 2.92 µM)
- MIC (C. difficile; C. difficile, Micromyx Number 3593, Table 1): 0.5 µg/mL (≈ 2.92 µM)
- MIC (C. difficile; C. difficile, Micromyx Number 3594, Table 1): 1 µg/mL (≈ 5.84 µM)
- MIC (C. difficile; C. difficile, Micromyx Number 3595, Table 1): 1 µg/mL (≈ 5.84 µM)
- MIC (C. difficile; C. difficile, Micromyx Number 4381 (ATCC strain), Table 1): 0.5 µg/mL (≈ 2.92 µM)
SMILES: Cc1ncc([N+](=O)[O-])n1CCO [metronidazole, reference compound]
